Key:
5-HT2A [1] = target: T1, 5-HT2A (Homo sapiens, UniProt P28223); test: Serotonin 5-HT2A in vitro cellular IPOne agonism assay; format: cell-based; design: host or cells: CHO-K1; conditions: CHO-K1 cells, IPOne HTRF, agonist mode
Procedure: Serotonin 5-HT2A In Vitro Cellular IPOne Agonism Assay. The 5-HT2A IPOne HTRF assay was performed at Epics Therapeutics S.A. (Belgium, FAST-0505I) using conventional methods. Briefly, CHO-K1 cells expressing human recombinant 5-HT2A receptor grown to mid-log phase in culture media without antibiotics were detached with PBS-EDTA, centrifuged, and resuspended in medium without antibiotics buffer. 20,000 cells were distributed in a 96 well plate and incubated overnight at 37° C. with 5% CO2.
For agonist testing, the medium was removed and 20 μl of assay buffer plus 20 μl of test compound or reference agonist are added in each well. The plate is incubated for 60 min. at 37° C. with 5% CO2.
(§1) After addition of the lysis buffer containing IP1-d2 and anti-IP1 cryptate detection reagents, plates were incubated 1-hour at room temperature, and fluorescence ratios were measured according to the manufacturer specification, with the HTRF kit.

rat cortical neurons = test: Neurite outgrowth in primary neuronal cultures assay; format: cell-based; design: key: A: Statistically significant mean increase as a percent of DMSO control at 10 μM or less; B: No statistically significant mean increase as a percent of DMSO control at 10 μM or less; conditions: 72 h, vs DMSO control, 10 μM or less
From the text: Neurite Outgrowth in Primary Neuronal Cultures Assay. Changes in the pattern of neurite outgrowth have been implicated in psychiatric and neurodegenerative disorders as well as traumatic injuries. The discovery of new compounds that can positively affect neuritogenesis are important for developing new therapeutics for neurological diseases. Measurement of neurite outgrowth of rat cortical neurons using an automated image-based assay was used to determine the neuroplastic effects of the compounds of the present disclosure. The neurite outgrowth assay was performed at Neurofit SAS (France) as described below.
Pregnant Wistar rats (Janvier; France) were used for the study. They were delivered 6 days before their use. Upon arrival at Neurofit animal facility, they were housed one per cage and maintained in a room with controlled temperature (21-22° C.) and a reversed light-dark cycle (12 h/12 h; lights on: 17:30-05:30; lights off: 05:30-17:30) with food and water available ad libitum.
Female Wistar rats of 17 days gestation were killed by cervical dislocation and the fetuses were removed from the uterus. Their brains were placed in ice-cold medium of Leibovitz (L15, Gibco, Fisher bioblock, France). Cortices were dissected and meninges were carefully removed. The cortical neurons were dissociated by trypsinization for 30 min at 37° C. (trypsin-EDTA, Gibco) in presence of 0.1 mg/ml DNAse I (Roche, France). The reaction was stopped by addition of Dulbecco's Modified Eagle Medium (DMEM; Gibco) with 10% of fetal bovine serum (FBS; Gibco). The suspension was triturated with a 10-ml pipette and using a needle syringe 21 G and centrifuged at 350×g for 10 min at room temperature. The pellet of dissociated cells was resuspended in a medium consisting of Neurobasal (Gibco) supplemented with 2% B27 supplement (Gibco), 0.5 mM L-Glutamine (Gibco), an antibiotic-antimicotic mixture. Viable cells were counted in a Neubauer cytometer using the trypan blue exclusion test (Sigma). Cells were seeded at a density of 10000 cells per well in 96-well plate (Costar) precoated with poly-L-lysine. Test compound at different concentrations were added to the cultures. Donepezil (positive control) was tested at 250 nM.
After 72 h (3 days) of plating, cultures were fixed with paraformaldehyde in PBS (4%, Sigma) for 30 min at 4° C. Then, cells were successively permeabilized with 0.1% Triton X100 for 30 min, saturated with PBS containing 3% of BSA and were incubated 1 h with anti-beta III tubulin antibody (Sigma) at 1/10 000 in PBS containing 0.5% of BSA. Cells were washed three times with PBS containing 0.5% of BSA, and they were incubated 1 h with goat anti-mouse antibody coupled with AF488 (Invitrogen A11001) diluted at 1/1000 in PBS containing 0.5% of BSA. Finally, nuclei were staining with DAPI 1 mg/ml at 1/1000 in PBS containing 0.5% of BSA. After rinsing with PBS, the plate was filmed and neurite networks were examined and analyzed using High-Content Screening (CellInsight, Thermo Scientific). The average number of neurites per neuron and the average total length of neurites per neuron were the main parameters analyzed. Analysis of data was performed using analysis of variance (ANOVA). The Fisher's Protected Least Significant Difference test was used for multiple comparisons. A p value ≤0.05 was considered significant. The software used is StatView 5.0 from SAS Institut.

5-HT2A [2] = target: T1, 5-HT2A; test: Serotonin 5-HT2A in vitro radioligand binding competition assay; design: purchased Epics Therapeutics S.A. (Belgium) FAST-0505B; host or cells: membrane extracts; conditions: radiotracer [3H]-DOI, membrane extracts
Procedure: Serotonin 5-HT2A In Vitro Radioligand Binding Competition Assay. The 5-HT2A radioligand binding competition assay was performed at Epics Therapeutics S.A. (Belgium, FAST-0505B) using conventional methods. Briefly, competition binding was performed in duplicate in the wells of a 96 well plate (Master Block, Greiner, 786201) containing binding buffer (optimized for each receptor), membrane extracts (amount of protein/well optimized for each receptor), radiotracer [^3H]-DOI (final concentration optimized for each receptor) and test compound. Nonspecific binding was determined by co-incubation with 200-fold excess of cold competitor. The samples were incubated in a final volume of 0.1 ml at a temperature and for a duration optimized for each receptor and then filtered over filter plates. Filters were washed six times with 0.5 ml of ice-cold washing buffer (optimized for each receptor) and 50 µl of Microscint 20 (Packard) were added in each well. The plates were incubated 15 min on an orbital shaker and then counted with a TopCount™ for 1 min/well.

5-HT2A [3] = target: T1, 5-HT2A; test: Serotonin 5-HT2A in vitro cellular IPOne antagonism assay; format: cell-based; design: host or cells: CHO-K1; conditions: CHO-K1 cells, IPOne HTRF, reference agonist a-Me-5HT; read-out: 5-HT2A IPOne Antagonist Activity
Procedure: Serotonin 5-HT2A In Vitro Cellular IPOne Antagonism Assay. The 5-HT2A TPOne HTRF assay was performed at Epics Therapeutics S.A. (Belgium, FAST-0505I) in antagonism mode using conventional methods. Briefly, CHO-K1 cells expressing human recombinant 5-HT2A receptor grown to mid-log phase in culture media without antibiotics were detached with PBS-EDTA, centrifuged, and resuspended in medium without antibiotics buffer. 20,000 cells were distributed in a 96 well plate and incubated overnight at 37° C. with […].
For antagonist testing, a reference agonist a-Me-5HT was added and fluorescence signal monitored for several minutes, followed by addition of 20 μl of assay buffer plus 20 μl of test compound or reference antagonist ketanserin, in each well. The plate was incubated for 60 min. at 37° C. with 5% CO2.
as §1

5HT2A sensor = conditions: cited from earlier work

T1 sequence (P28223 whole entry): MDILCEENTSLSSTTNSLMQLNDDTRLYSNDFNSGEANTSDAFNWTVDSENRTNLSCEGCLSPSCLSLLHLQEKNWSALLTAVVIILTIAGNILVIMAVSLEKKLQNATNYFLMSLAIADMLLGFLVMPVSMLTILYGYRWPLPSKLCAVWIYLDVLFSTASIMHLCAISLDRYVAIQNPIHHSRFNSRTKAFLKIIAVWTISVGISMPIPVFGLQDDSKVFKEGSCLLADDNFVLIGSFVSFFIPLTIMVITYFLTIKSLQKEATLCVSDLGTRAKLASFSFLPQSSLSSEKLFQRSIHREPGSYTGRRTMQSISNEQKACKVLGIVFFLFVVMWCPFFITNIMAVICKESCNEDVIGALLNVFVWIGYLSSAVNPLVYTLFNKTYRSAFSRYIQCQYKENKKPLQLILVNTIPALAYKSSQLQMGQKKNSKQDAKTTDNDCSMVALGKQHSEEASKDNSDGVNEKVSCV

Row | SMILES | EC50 (5-HT2A [1]) | Increase in Neurite Length (rat cortical neurons) | Increase in Neurite Number (rat cortical neurons) | Increase in Number of Branchpoints (rat cortical neurons) | IC50 (5-HT2A [2]) | IC50 (5-HT2A [3]) | activation of the 5HT2A sensor assay in agonist mode (5HT2A sensor)
1 | C[C@H](Cn1ccc2cc(OCc3ccccc3F)ccc21)N(C)C [Compound 10, (R)-1-(5-((2-fluorobenzyl)oxy)-1H-indol-1-yl)-N,N-dimethylpropan-2-amine] | > 10000 nM | A | A | A | 10 to 100 nM | 101 to 1000 nM | 
2 | C[C@@H](N)Cn1ccc2cc(OCc3ccccc3F)ccc21 [Compound 7, (R)-1-(5-((2-fluorobenzyl)oxy)-1H-indol-1-yl)propan-2-amine] | 1000 to 10000 nM | B | A | A | 1000 to 10000 nM |  | 
3 | CN(C)CCc1c[nH]c2ccccc12 [DMT, N,N-dimethyltryptamine] |  |  |  |  |  |  | activate the 5HT2A sensor assay in agonist mode
4 | C[C@@H](N)Cn1ccc2cc(OCc3ccc(F)cc3)ccc21 [Compound 5, (R)-1-(5-((4-fluorobenzyl)oxy)-1H-indol-1-yl)propan-2-amine] | 1000 to 10000 nM | B | B | B | 101 to 1000 nM | 101 to 1000 nM | 
5 | C[C@H](Cn1ccc2cc(OCc3cccc(F)c3)ccc21)N(C)C [Compound 9, (R)-1-(5-((3-fluorobenzyl)oxy)-1H-indol-1-yl)-N,N-dimethylpropan-2-amine] | > 10000 nM | A | A | A | 101 to 1000 nM | 10 to 100 nM | 
6 | CN[C@H](C)Cn1ccc2cc(OCc3ccccc3)ccc21 [Compound 4, (R)-1-(5-(benzyloxy)-1H-indol-1-yl)-N-methylpropan-2-amine] | > 10000 nM | A | A | A | 1000 to 10000 nM | 101 to 1000 nM | 
7 | C[C@@H](N)Cn1ccc2cc(OCc3cccc(F)c3)ccc21 [Compound 6, (R)-1-(5-((3-fluorobenzyl)oxy)-1H-indol-1-yl)propan-2-amine] | 1000 to 10000 nM | A | B | A | 101 to 1000 nM | 101 to 1000 nM | 
8 | C[C@H](Cn1ccc2cc(OCc3ccccc3)ccc21)N(C)C [Compound 3, (R)-1-(5-(benzyloxy)-1H-indol-1-yl)-N,N-dimethylpropan-2-amine] | > 10000 nM | A | B | B | 101 to 1000 nM | 10 to 100 nM | 
9 | CCN(CC)C(=O)[C@@H]1C=C2c3cccc4[nH]cc(c34)C[C@H]2N(C)C1 [LSD] |  |  |  |  |  |  | activate the 5HT2A sensor assay in agonist mode
10 | C[C@H](Cn1ccc2nc(OCc3ccccc3)ccc21)N(C)C [Compound 1, (R)-1-(5-(benzyloxy)-1H-pyrrolo[3,2-b]pyridin-1-yl)-N,N-dimethylpropan-2-amine] | > 10000 nM | A | A | A | 101 to 1000 nM | 101 to 1000 nM | 
11 | CCN(CC)[C@H](C)Cn1ccc2cc(OCc3ccccc3)ccc21 [Compound 11, (R)-1-(5-(benzyloxy)-1H-indol-1-yl)-N,N-diethylpropan-2-amine] | > 10000 nM | A | A | A | 1000 to 10000 nM | 101 to 1000 nM | 
12 | C[C@@H](N)Cn1ccc2nc(OCc3ccccc3)ccc21 [Compound 2, (R)-1-(5-(benzyloxy)-1H-pyrrolo[3,2-b]pyridin-1-yl)propan-2-amine] | > 10000 nM |  |  |  | > 10000 nM |  | 
13 | C[C@H](Cn1ccc2cc(OCc3ccc(F)cc3)ccc21)N(C)C [Compound 8, (R)-1-(5-((4-fluorobenzyl)oxy)-1H-indol-1-yl)-N,N-dimethylpropan-2-amine] | > 10000 nM | A | A | A | 10 to 100 nM | < 10 nM | 
14 | C[C@H](Cn1ccc2cc(OCc3ccccc3)ccc21)N1CCCC1 [Compound 12, (R)-5-(benzyloxy)-1-(2-(pyrrolidin-1-yl)propyl)-1H-indole] | > 10000 nM | A | A | B | 1000 to 10000 nM | 101 to 1000 nM | 
